Source: patent publication US20070123492A1, “Analogs of lysophosphatidic acid and methods of making and using thereof” (priority 2003, published 2007)

Tests used:
platelets = assay: Platelet activation by fluorinated LPA analogues; format: cell-based; conditions: preliminary results
(18:1) LPA pain response = assay: (18:1) LPA pain response; format: in vivo; conditions: preliminary results
LPA1 = target: T1, LPA1 (Homo sapiens, UniProt Q92633); assay: Agonist/antagonist activity in insect cells expressing LPA1; format: cell-based
T1 construct: expressed in transfected cells; host or cells: insect cells

LPA2 = target: T2, LPA2 (Homo sapiens, UniProt Q9HBW0); assay: Agonist/antagonist activity in insect cells expressing LPA2; format: cell-based
T2 construct: expressed in transfected cells; host or cells: insect cells

LPA3 [1] = target: T3, LPA3 (Homo sapiens, UniProt Q9UBY5); assay: Agonist/antagonist activity in insect cells expressing LPA3; format: cell-based; parameters: expressed in transfected cells; host or cells: insect cells
T3 sequence (Q9UBY5 1-353): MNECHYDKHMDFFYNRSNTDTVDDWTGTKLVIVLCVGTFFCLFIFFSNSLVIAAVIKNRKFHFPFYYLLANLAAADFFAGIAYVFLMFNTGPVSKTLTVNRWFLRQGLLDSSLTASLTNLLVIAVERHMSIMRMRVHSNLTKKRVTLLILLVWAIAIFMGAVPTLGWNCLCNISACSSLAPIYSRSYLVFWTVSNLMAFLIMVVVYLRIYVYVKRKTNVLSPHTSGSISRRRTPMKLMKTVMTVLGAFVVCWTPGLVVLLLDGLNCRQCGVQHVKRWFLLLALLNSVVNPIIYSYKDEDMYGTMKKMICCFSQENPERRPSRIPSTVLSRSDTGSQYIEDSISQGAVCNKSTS

LPA3 [2] = target: T3, LPA3; assay: Potency on the LPA3 receptor; format: cell-based; conditions: preliminary data
Edg7/LPA3 = Edg7/LPA3 (Homo sapiens, UniProt Q9UBY5); conditions: Edg7/LPA3 as compared to Edg2/LPA1 or Edg4/LPA2; cited from earlier work
LPA receptor = conditions: Xenopus oocytes; cited from earlier work

T1 sequence (Q92633 whole entry, species assumed): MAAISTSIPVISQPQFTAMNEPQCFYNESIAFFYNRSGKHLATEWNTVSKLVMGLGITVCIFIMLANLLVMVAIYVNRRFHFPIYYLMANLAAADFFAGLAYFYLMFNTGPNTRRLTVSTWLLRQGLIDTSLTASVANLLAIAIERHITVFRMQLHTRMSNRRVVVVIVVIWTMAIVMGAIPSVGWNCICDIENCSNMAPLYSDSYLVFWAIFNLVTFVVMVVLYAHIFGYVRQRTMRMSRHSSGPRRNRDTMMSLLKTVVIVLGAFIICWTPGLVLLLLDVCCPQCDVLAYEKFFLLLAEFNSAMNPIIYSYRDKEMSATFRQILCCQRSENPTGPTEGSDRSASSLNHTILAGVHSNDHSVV
T2 sequence (Q9HBW0 whole entry, species assumed): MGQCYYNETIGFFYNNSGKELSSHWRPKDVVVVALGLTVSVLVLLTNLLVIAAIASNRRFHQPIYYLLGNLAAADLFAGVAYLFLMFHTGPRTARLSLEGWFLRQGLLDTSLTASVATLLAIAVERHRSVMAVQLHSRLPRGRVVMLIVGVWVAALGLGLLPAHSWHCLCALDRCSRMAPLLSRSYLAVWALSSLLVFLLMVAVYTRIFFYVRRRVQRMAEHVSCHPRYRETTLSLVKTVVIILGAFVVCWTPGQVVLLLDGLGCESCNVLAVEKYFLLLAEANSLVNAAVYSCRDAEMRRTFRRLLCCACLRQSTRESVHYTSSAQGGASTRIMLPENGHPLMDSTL

## CCCCCCCC/C=C\CCCCCCCC(=O)O[C@H](CF)COP(=O)(O)O [Compound 1a, 1-Phospho-2(S)-(oleoyl)-3-fluorine-propane-1,2-diol]
platelets
  ability to activate platelets: able to activate platelets
(18:1) LPA pain response
  agonism of the (18:1) LPA pain response: partial agonists
LPA1
  agonist or antagonist activity: failed to show either significant agonist or antagonist activity
LPA2
  agonist or antagonist activity: failed to show either significant agonist or antagonist activity
LPA3 [1]
  agonist or antagonist activity: failed to show either significant agonist or antagonist activity

## CCCCCCCCCCCCCCCC(=O)O[C@H](CF)COP(=O)(O)O [Compound 1b, 1-Phospho-2(S)-(palmitoyl)-3-fluorine-propane-1,2-diol]
platelets
  ability to activate platelets: able to activate platelets
(18:1) LPA pain response
  agonism of the (18:1) LPA pain response: partial agonists
LPA1
  agonist or antagonist activity: failed to show either significant agonist or antagonist activity
LPA2
  agonist or antagonist activity: failed to show either significant agonist or antagonist activity
LPA3 [1]
  agonist or antagonist activity: failed to show either significant agonist or antagonist activity

## CCCCCCCC/C=C\CCCCCCCC(=O)O[C@H](CF)COP(=O)(O)O [Compound 1c, 1-Phospho-2(S)-(oleoyl)-3-fluorine-propane-1,2-diol]
LPA3 [2]; relative to 1a (R)
  potency on LPA3 relative to 1a (R): approximately 100 fold
LPA3 [2]
  potency relative to natural 18:1 LPA on the LPA3 receptor: somewhat more potent

## CCCCCCCC/C=C\CCCCCCCC(=O)OC[C@@H](COP(O)(O)=S)OC [OMPT]
Edg7/LPA3
  receptor subtype selectivity: preferred selectivity for Edg7/LPA3

## CCCCCCCCCCCCCCCC(=O)NC(COP(=O)(O)O)C(=O)O (centres unmarked) [compound 33]
LPA receptor
  antagonism of LPA receptor function: potent competitive antagonists

## CCCCCCCCCCCCCCCC(=O)NC(Cc1ccc(OP(=O)(O)O)cc1)C(=O)O (centres unmarked) [compound 34]
LPA receptor
  antagonism of LPA receptor function: potent competitive antagonists

## [1-Fluoro-3(S)-hydroxyl-4-(oleoyloxy)butyl]phosphonate [Compound 3aa]
LPA3 [2]; relative to 3ab (R)
  potency on LPA3 relative to 3ab (R): approximately 100 fold
LPA3 [2]
  potency relative to natural 18:1 LPA on the LPA3 receptor: 1000 fold
